Converted amounts (≈) assume the structure as drawn.
Key:
large crabgrass = test: Upland foliar application test (Test 3); type: in vivo; details: 30 g ai/a, foliar spray at 2-3 leaves, 30th day
Procedure, shortened: (§1)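 Plants were grown from seed in upland-field soil in a greenhouse. At the 2-3 leaf stage, an emulsion of each compound, diluted with water, was sprayed on the foliage at a rate equal to 5 l per are with a pressure-operated ULV sprayer. Damage and crop injury were scored on day 30.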

redroot pigweed = test: Upland foliar application test (Test 3); type: in vivo; details: 30 g ai/a, foliar spray at 2-3 leaves, 30th day
Procedure, shortened: as §1

johnsongrass = test: Upland foliar application test (Test 3); type: in vivo; details: 30 g ai/a, foliar spray at 2-3 leaves, 30th day
Procedure, shortened: as §1

barnyardgrass [1] = test: Upland foliar application test (Test 3); type: in vivo; details: 30 g ai/a, foliar spray at 2-3 leaves, 30th day
Procedure, shortened: as §1

foxtail meadow = test: Upland foliar application test (Test 3); type: in vivo; details: 30 g ai/a, foliar spray at 2-3 leaves, 30th day
Procedure, shortened: as §1

common lambsquarters = test: Upland foliar application test (Test 3); type: in vivo; details: 30 g ai/a, foliar spray at 2-3 leaves, 30th day
Procedure, shortened: as §1

green foxtail = test: Upland foliar application test (Test 3); type: in vivo; details: 30 g ai/a, foliar spray at 2-3 leaves, 30th day
Procedure, shortened: as §1

Sagittaria pygmaea [2] = test: Treatment of soil under submerged condition, pre-emergence (Test 4); type: in vivo; details: 30 g ai/a granule, 30 days later
Procedure, shortened: (§2)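 Flooded soil pots; weeds sown/planted, rice transplanted (2 pairs, 2–3 leaf), greenhouse. Granule applied day 1, pre-emergence of weeds. Scored at 30 d for weed damage and rice injury.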

barnyardgrass [3] = test: as above; type: in vivo; details: 30 g ai/a granule, 30 days later
Procedure, shortened: as §2

bulrush [4] = test: as above; type: in vivo; details: 30 g ai/a granule, 30 days later
Procedure, shortened: as §2

[5] = test system: ALS (acetolactate syntase); test: ALS enzyme assay (Test 1); type: biochemical, barnyardgrass; details: 1,000 ppm (0.5 mg/0.5 ml)
Procedure, shortened: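 Partially purified ALS from dark-grown pea and barnyardgrass seedlings incubated 1 h at 30° C with pyruvate, TPP, MgCl2 and FAD. Compounds tested at 1,000 ppm (0.5 mg/0.5 ml). Acetoin formed detected colorimetrically at 525 nm via creatine/α-naphthol, relative to blank and acid-stopped controls.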

narrowleaf waterplantain = test: Petri dish test (Test 6); type: in vivo; details: 336 h; seeds on filter paper, 25° C., 14 days; read-out: I80 (ppm)
Procedure, shortened: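 Narrowleaf waterplantain seeds placed on filter paper pre-treated with compound in acetone (solvent air-dried) in 9 cm Petri dishes with 10 ml water, grown at 25° C in light. Growth was scored after fourteen days as degree of damage against an untreated group.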

Sagittaria pygmaea [6] = test: Treatment of soil under submerged condition, post-emergence (Test 5); type: in vivo; details: 30 g ai/a granule, 30 days later
Procedure, shortened: (§3)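 Pots of submerged soil were sown with weed seeds or tubers, and 2-3-leaf rice seedling pairs were transplanted. At barnyardgrass two-leaf stage a granule formulation was applied. Weed emergence and rice injury were rated 30 days later as damage degrees.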

barnyardgrass [7] = test: as above; type: in vivo; details: 30 g ai/a granule, post-emergence (barnyardgrass two-leaf stage), 30 days later
Procedure, shortened: as §3

bulrush [8] = test: as above; type: in vivo; details: 30 g ai/a granule, 30 days later
Procedure, shortened: as §3

rice [9] = test: Treatment of soil under submerged condition, pre-emergence (Test 4), injury; type: in vivo; details: 30 g ai/a granule, 30 days later
Procedure, shortened: as §2

peanut = test: Upland foliar application test (Test 3), crop injury; type: in vivo; details: 30 g ai/a, foliar spray at 2-3 leaves, 30th day
Procedure, shortened: as §1

rice [10] = test: Treatment of soil under submerged condition, post-emergence (Test 5), injury; type: in vivo; details: 30 g ai/a granule, 30 days later
Procedure, shortened: as §3

SMILES	Inhibitory activity (%) Barnyardgrass [5] [%]	Herbicidal effects Large crabgrass (large crabgrass)	Herbicidal effects Redroot pigweed (redroot pigweed)	Herbicidal effects Johnsongrass (johnsongrass)	Herbicidal effects Barnyardgrass (barnyardgrass [1])	Herbicidal effects Foxtail meadow (foxtail meadow)	Herbicidal effects Common lambsquarters (common lambsquarters)	Herbicidal effects Green foxtail (green foxtail)	Herbicidal effects Sagittaria Pygmaea (Sagittaria pygmaea [2])	Herbicidal effects Barnyardgrass (barnyardgrass [3])	Herbicidal effects Bulrush (bulrush [4])	IC80 (narrowleaf waterplantain) [µg/mL]	Herbicidal effects Sagittaria Pygmaea (Sagittaria pygmaea [6])	Herbicidal effects Barnyardgrass (barnyardgrass [7])	Herbicidal effects Bulrush (bulrush [8])	Injury Rice (rice [9])	Injury Peanut (peanut)	Injury Rice (rice [10])
COc1cc(OC)nc(Oc2ccccc2C=NOCC=Cc2ccc(C(F)(F)F)cc2)n1 [compound 35]	89	5 (0-5 (Death))	4 (6-10 (Severe damages))	5 (0-5 (Death))	5 (0-5 (Death))	5 (0-5 (Death))	4 (6-10 (Severe damages))	5 (0-5 (Death))	5 (0-5 (Death))	4 (6-10 (Severe damages))	3 (11-40 (Medium damages))	6 (≈ 13.1 µM)	3 (11-40 (Medium damages))	5 (0-5 (Death))	4 (6-10 (Severe damages))	0 (91-100 (No damages))	0 (91-100 (No damages))	0 (91-100 (No damages))
CCc1ccc(C=CCON=Cc2ccccc2Oc2nc(OC)cc(OC)n2)cc1 [compound 37]	93	5 (0-5 (Death))	4 (6-10 (Severe damages))	5 (0-5 (Death))	4 (6-10 (Severe damages))	5 (0-5 (Death))	4 (6-10 (Severe damages))	5 (0-5 (Death))	4 (6-10 (Severe damages))	4 (6-10 (Severe damages))	4 (6-10 (Severe damages))	2 (≈ 4.77 µM)	4 (6-10 (Severe damages))	5 (0-5 (Death))	5 (0-5 (Death))	0 (91-100 (No damages))	0 (91-100 (No damages))	1 (71-90 (Slight damages))
COc1cccc(C=CCON=Cc2ccccc2Oc2nc(OC)cc(OC)n2)c1 [compound 38]	91	5 (0-5 (Death))	4 (6-10 (Severe damages))	5 (0-5 (Death))	5 (0-5 (Death))	4 (6-10 (Severe damages))	4 (6-10 (Severe damages))	5 (0-5 (Death))	5 (0-5 (Death))	4 (6-10 (Severe damages))	4 (6-10 (Severe damages))	2 (≈ 4.75 µM)	4 (6-10 (Severe damages))	5 (0-5 (Death))	5 (0-5 (Death))	0 (91-100 (No damages))	0 (91-100 (No damages))	1 (71-90 (Slight damages))

Further lines, with some results ahead:

Inhibitory activity (%) Barnyardgrass [5] [%]	SMILES	Herbicidal effects Large crabgrass (large crabgrass)	Herbicidal effects Redroot pigweed (redroot pigweed)	Herbicidal effects Johnsongrass (johnsongrass)	Herbicidal effects Barnyardgrass (barnyardgrass [1])	Herbicidal effects Foxtail meadow (foxtail meadow)	Herbicidal effects Common lambsquarters (common lambsquarters)	Herbicidal effects Green foxtail (green foxtail)	Herbicidal effects Sagittaria Pygmaea (Sagittaria pygmaea [2])	Herbicidal effects Barnyardgrass (barnyardgrass [3])	Herbicidal effects Bulrush (bulrush [4])	IC80 (narrowleaf waterplantain) [µg/mL]	Herbicidal effects Sagittaria Pygmaea (Sagittaria pygmaea [6])	Herbicidal effects Barnyardgrass (barnyardgrass [7])	Herbicidal effects Bulrush (bulrush [8])	Injury Rice (rice [9])	Injury Peanut (peanut)	Injury Rice (rice [10])
91	COc1cc(OC)nc(Oc2ccccc2C=NOCC=Cc2ccccc2C(F)(F)F)n1 [compound 32]	5 (0-5 (Death))	5 (0-5 (Death))	5 (0-5 (Death))	5 (0-5 (Death))	5 (0-5 (Death))	4 (6-10 (Severe damages))	5 (0-5 (Death))	5 (0-5 (Death))	5 (0-5 (Death))	4 (6-10 (Severe damages))	4 (≈ 8.71 µM)	4 (6-10 (Severe damages))	5 (0-5 (Death))	4 (6-10 (Severe damages))	0 (91-100 (No damages))	0 (91-100 (No damages))	1 (71-90 (Slight damages))
91	COc1cc(OC)nc(Oc2ccccc2C=NOCC=Cc2c(F)cccc2F)n1 [compound 33]	5 (0-5 (Death))	4 (6-10 (Severe damages))	5 (0-5 (Death))	5 (0-5 (Death))	5 (0-5 (Death))	4 (6-10 (Severe damages))	5 (0-5 (Death))	5 (0-5 (Death))	4 (6-10 (Severe damages))	4 (6-10 (Severe damages))	8 (≈ 18.7 µM)	4 (6-10 (Severe damages))	5 (0-5 (Death))	5 (0-5 (Death))	0 (91-100 (No damages))	0 (91-100 (No damages))	1 (71-90 (Slight damages))
92	COc1cc(OC)nc(Oc2ccccc2C=NOCC=Cc2ccc(C)cc2)n1 [compound 36]	5 (0-5 (Death))	4 (6-10 (Severe damages))	5 (0-5 (Death))	5 (0-5 (Death))	5 (0-5 (Death))	4 (6-10 (Severe damages))	5 (0-5 (Death))	5 (0-5 (Death))	4 (6-10 (Severe damages))	4 (6-10 (Severe damages))	4 (≈ 9.87 µM)	4 (6-10 (Severe damages))	5 (0-5 (Death))	5 (0-5 (Death))	0 (91-100 (No damages))	0 (91-100 (No damages))	1 (71-90 (Slight damages))

Reference: patent US5053070A, “Pyrimidine derivatives, preparation processes thereof, herbicide containing the same, and herbicidal compositions containing the same along with other active ingredient” (Mitsui Toatsu Chemicals, Incorporated, priority 1988, dated 1991)
